Data on 18 compounds can be found in patent publication US9801889B2, “Bicyclic heterocycles as FGFR4 inhibitors” (Incyte Corporation, priority 2015, dated 2017).

SMILES strings stand for the structures.

Common to all, as to details: IC50 ratio showing FGFR4 selectivity
One test deals with FGFR1 (Homo sapiens (Human), UniProt P11362). Description: FGFR Enzymatic Assay (FRET peptide phosphorylation), FGFR1.
For the next test, the target named is FGFR2 (Homo sapiens (Human), UniProt P21802). Description: FGFR Enzymatic Assay (FRET peptide phosphorylation), FGFR2.
Sequence of FGFR2 (P21802 22-821): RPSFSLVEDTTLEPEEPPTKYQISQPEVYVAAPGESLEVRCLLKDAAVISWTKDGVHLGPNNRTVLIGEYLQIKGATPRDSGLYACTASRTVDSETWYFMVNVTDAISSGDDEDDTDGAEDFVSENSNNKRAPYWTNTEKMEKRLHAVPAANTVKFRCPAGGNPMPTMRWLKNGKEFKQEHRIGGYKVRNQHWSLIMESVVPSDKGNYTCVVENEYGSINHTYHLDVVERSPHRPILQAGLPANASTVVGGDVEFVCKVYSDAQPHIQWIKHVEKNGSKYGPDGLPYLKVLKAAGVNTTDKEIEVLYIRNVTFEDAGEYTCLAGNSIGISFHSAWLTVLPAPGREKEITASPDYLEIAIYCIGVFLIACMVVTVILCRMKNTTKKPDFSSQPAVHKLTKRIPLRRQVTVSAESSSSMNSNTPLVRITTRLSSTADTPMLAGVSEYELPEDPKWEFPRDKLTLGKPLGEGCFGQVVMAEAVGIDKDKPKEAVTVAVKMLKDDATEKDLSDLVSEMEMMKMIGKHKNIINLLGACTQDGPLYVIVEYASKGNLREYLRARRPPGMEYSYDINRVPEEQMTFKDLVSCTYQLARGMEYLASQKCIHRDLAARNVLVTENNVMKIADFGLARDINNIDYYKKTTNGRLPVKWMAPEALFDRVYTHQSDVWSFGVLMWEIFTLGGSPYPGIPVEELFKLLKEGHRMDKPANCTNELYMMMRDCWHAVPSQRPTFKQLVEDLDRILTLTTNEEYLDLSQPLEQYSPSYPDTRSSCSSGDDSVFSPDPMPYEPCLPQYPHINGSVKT
In the next test the target is FGFR3 (Homo sapiens (Human), UniProt P22607). Briefly: FGFR Enzymatic Assay (FRET peptide phosphorylation), FGFR3.
Sequence of FGFR3 (P22607 23-806): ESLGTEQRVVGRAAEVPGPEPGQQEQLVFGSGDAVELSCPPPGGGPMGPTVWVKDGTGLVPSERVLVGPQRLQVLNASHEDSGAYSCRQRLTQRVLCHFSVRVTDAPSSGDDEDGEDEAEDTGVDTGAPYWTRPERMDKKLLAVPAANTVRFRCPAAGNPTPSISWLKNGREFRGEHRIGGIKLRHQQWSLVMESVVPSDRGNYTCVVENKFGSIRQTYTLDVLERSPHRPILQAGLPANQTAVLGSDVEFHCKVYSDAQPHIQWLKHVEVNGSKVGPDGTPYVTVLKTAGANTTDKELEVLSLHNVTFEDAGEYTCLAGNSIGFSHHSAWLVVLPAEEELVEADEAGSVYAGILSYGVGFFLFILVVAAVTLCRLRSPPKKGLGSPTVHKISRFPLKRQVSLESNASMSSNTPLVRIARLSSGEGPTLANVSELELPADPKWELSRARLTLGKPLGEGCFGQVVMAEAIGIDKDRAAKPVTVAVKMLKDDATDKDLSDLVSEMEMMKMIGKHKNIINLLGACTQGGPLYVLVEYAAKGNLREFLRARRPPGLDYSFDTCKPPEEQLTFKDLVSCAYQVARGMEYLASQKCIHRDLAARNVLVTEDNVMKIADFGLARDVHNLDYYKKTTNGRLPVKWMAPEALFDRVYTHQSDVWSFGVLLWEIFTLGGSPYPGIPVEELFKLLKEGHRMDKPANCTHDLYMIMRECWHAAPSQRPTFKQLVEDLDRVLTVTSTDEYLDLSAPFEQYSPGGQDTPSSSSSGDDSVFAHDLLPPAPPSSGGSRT
Setting [1] is: pre-incubated for 5 to 10 minutes.

Sequence of FGFR1 (P11362 22-822): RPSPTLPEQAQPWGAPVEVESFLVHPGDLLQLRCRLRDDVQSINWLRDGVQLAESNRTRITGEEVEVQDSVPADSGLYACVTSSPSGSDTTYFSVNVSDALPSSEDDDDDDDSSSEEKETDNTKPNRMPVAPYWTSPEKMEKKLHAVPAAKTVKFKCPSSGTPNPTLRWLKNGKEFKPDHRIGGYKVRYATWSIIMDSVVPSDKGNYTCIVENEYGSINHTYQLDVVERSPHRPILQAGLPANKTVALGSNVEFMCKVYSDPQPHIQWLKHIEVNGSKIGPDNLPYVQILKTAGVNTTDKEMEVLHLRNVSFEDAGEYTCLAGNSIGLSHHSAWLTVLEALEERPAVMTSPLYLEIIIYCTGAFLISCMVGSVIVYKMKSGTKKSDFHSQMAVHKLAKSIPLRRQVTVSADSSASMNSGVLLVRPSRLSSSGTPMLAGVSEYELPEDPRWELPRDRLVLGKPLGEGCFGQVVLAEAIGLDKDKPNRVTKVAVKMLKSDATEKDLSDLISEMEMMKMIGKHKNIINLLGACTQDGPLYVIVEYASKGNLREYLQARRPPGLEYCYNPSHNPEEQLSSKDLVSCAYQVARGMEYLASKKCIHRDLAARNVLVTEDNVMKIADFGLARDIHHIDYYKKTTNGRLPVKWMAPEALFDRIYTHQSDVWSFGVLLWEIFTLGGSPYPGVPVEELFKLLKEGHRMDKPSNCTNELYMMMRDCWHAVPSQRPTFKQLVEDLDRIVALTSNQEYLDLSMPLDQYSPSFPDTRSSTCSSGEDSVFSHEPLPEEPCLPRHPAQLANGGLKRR
Excerpt for FGFR1: (§1) The enzymes were purchased from Millipore or Invitrogen.
(§2) GraphPad prism3 was used to analyze the data. The IC50 values were derived by fitting the data to the equation for a sigmoidal dose-response with a variable slope. Y=Bottom+(Top-Bottom)/(1+10^((LogIC50-X)*HillSlope)) where X is the logarithm of concentration and Y is the response.
Excerpt for FGFR2: as §1, §2
Excerpt for FGFR3: as §1, §2

Consider `C=CC(=O)Nc1ccc(C)c(-c2cc3c(cn2)CN(c2c(F)c(OC)cc(OC)c2F)C(=O)C32CC2)c1` [Example 2, N-(3-(2′-(2,6-difluoro-3,5-dimethoxyphenyl)-3′-oxo-2′,3′-dihydro-1′H-spiro[cyclopropane-1,4′-[2,7]naphthyridine]-6′-yl)-4-methylphenyl)acrylamide], for which the FGFR1/FGFR4 on FGFR1 (setting [1]) and at FGFR1 (pre-incubated for 4 hours) was above 100 throughout. The FGFR2/FGFR4 at FGFR2 (setting [1]) and on FGFR2 (pre-incubated for 4 hours) was above 100 throughout. The FGFR3/FGFR4 on FGFR3 (setting [1]) and at FGFR3 (pre-incubated for 4 hours) was above 100 each time.
Consider `C=CC(=O)Nc1cnn(Cc2ncn(C)n2)c1-c1cc2c(cn1)CN(c1c(F)c(OC)cc(OC)c1F)C(=O)C21CC1` [Example 23, N-(5-(2′-(2,6-difluoro-3,5-dimethoxyphenyl)-3′-oxo-2′,3′-dihydro-1′H-spiro[cyclopropane-1,4′-[2,7]naphthyridine]-6′-yl)-1-((1-methyl-1H-1,2,4-triazol-3-yl)methyl)-1H-pyrazol-4-yl)acrylamide], for which, at FGFR1 (pre-incubated for 4 hours), the FGFR1/FGFR4 is above 100. The FGFR2/FGFR4 at FGFR2 (pre-incubated for 4 hours) was above 100. The FGFR3/FGFR4 at FGFR3 (pre-incubated for 4 hours) was above 100.
In the case of `C=CC(=O)Nc1cn(CCOC)nc1-c1cc2c(cn1)CN(c1c(F)c(OC)cc(OC)c1F)C(=O)C21CC1` [Example 32, N-(3-(2′-(2,6-difluoro-3,5-dimethoxyphenyl)-3′-oxo-2′,3′-dihydro-1′H-spiro[cyclopropane-1,4′-[2,7]naphthyridine]-6′-yl)-1-(2-methoxyethyl)-1H-pyrazol-4-yl)acrylamide], at FGFR1 (pre-incubated for 4 hours), the FGFR1/FGFR4 is listed as above 100. For the same compound, the FGFR2/FGFR4 on FGFR2 (pre-incubated for 4 hours) is on record as above 100. For the same compound, the FGFR3/FGFR4 on FGFR3 (pre-incubated for 4 hours) was above 100.
With `C=CC(=O)Nc1cnn(Cc2ccncc2)c1-c1cc2c(cn1)CN(c1c(F)c(OC)cc(OC)c1F)C(=O)C21CC1` [Example 21, N-(5-(2′-(2,6-difluoro-3,5-dimethoxyphenyl)-3′-oxo-2′,3′-dihydro-1′H-spiro[cyclopropane-1,4′-[2,7]naphthyridine]-6′-yl)-1-(pyridin-4-ylmethyl)-1H-pyrazol-4-yl)acrylamide], the FGFR1/FGFR4 on FGFR1 (pre-incubated for 4 hours) is given as above 100. The FGFR2/FGFR4 on FGFR2 (pre-incubated for 4 hours) is recorded as above 50. Besides, at FGFR3 (pre-incubated for 4 hours), the FGFR3/FGFR4 is recorded as above 100.
In the case of `C=CC(=O)Nc1cnn(C[C@H]2CCCO2)c1-c1cc2c(cn1)CN(c1c(F)c(OC)cc(OC)c1F)C(=O)C21CC1` [Example 30], the FGFR1/FGFR4 on FGFR1 (pre-incubated for 4 hours) is recorded as above 100. For the same compound, at FGFR2 (pre-incubated for 4 hours), the FGFR2/FGFR4 was above 100. Besides, the FGFR3/FGFR4 at FGFR3 (pre-incubated for 4 hours) was above 100.
`C=CC(=O)Nc1cn(CCN2CCOCC2)nc1-c1cc2c(cn1)CN(c1c(F)c(OC)cc(OC)c1F)C(=O)C21CC1` [Example 34, N-(3-(2′-(2,6-difluoro-3,5-dimethoxyphenyl)-3′-oxo-2′,3′-dihydro-1′H-spiro[cyclopropane-1,4′-[2,7]naphthyridine]-6′-yl)-1-(2-morpholinoethyl)-1H-pyrazol-4-yl)acrylamide]: the FGFR1/FGFR4 on FGFR1 (pre-incubated for 4 hours) is listed as above 100. The FGFR2/FGFR4 at FGFR2 (pre-incubated for 4 hours) is listed as above 100. For the same compound, the FGFR3/FGFR4 at FGFR3 (pre-incubated for 4 hours) is above 100.
For the compound `C=CC(=O)Nc1cc(-c2cc3c(cn2)CN(c2c(F)c(OC)cc(OC)c2F)C(=O)C32CC2)c(C)cc1F` [Example 6, N-(5-(2′-(2,6-difluoro-3,5-dimethoxyphenyl)-3′-oxo-2′,3′-dihydro-1′H-spiro[cyclopropane-1,4′-[2,7]naphthyridine]-6′-yl)-2-fluoro-4-methylphenyl)acrylamide], the FGFR1/FGFR4 on FGFR1 (setting [1]) and on FGFR1 (pre-incubated for 4 hours) was above 100 each time. For the same compound, the FGFR2/FGFR4 on FGFR2 (setting [1]) and on FGFR2 (pre-incubated for 4 hours) was above 100 throughout. In addition, the FGFR3/FGFR4 at FGFR3 (setting [1]) and at FGFR3 (pre-incubated for 4 hours) was above 100 in each case.
Turning to `C=CC(=O)Nc1cnc(C)c(-c2cc3c(cn2)CN(c2c(F)c(OC)cc(OC)c2F)C(=O)C32CC2)c1` [Example 7, N-(5-(2′-(2,6-difluoro-3,5-dimethoxyphenyl)-3′-oxo-2′,3′-dihydro-1′H-spiro[cyclopropane-1,4′-[2,7]naphthyridine]-6′-yl)-6-methylpyridin-3-yl)acrylamide], the FGFR1/FGFR4 at FGFR1 (setting [1]) and on FGFR1 (pre-incubated for 4 hours) was above 100 each time. Also, the FGFR2/FGFR4 on FGFR2 (setting [1]) and at FGFR2 (pre-incubated for 4 hours) was above 100 in each case. For the same compound, the FGFR3/FGFR4 at FGFR3 (setting [1]) and at FGFR3 (pre-incubated for 4 hours) was above 100 each time.
On to `C=CC(=O)N1CCCC(c2cc3c(cn2)CN(c2c(F)c(OC)cc(OC)c2F)C(=O)C32CC2)C1` (stereo not drawn) [Example 8, 6′-(1-acryloylpiperidin-3-yl)-2′-(2,6-difluoro-3,5-dimethoxyphenyl)-1′H-spiro[cyclopropane-1,4′-[2,7]naphthyridin]-3′(2′H)-one], for which the FGFR1/FGFR4 on FGFR1 (setting [1]) is listed as above 5; at FGFR1 (pre-incubated for 4 hours) it was above 10. For the same compound, the FGFR2/FGFR4 on FGFR2 (setting [1]) is recorded as above 1; on FGFR2 (pre-incubated for 4 hours) it was above 2. In addition, the FGFR3/FGFR4 is above 1 at FGFR3 (setting [1]) and above 2 at FGFR3 (pre-incubated for 4 hours).
On to `C=CC(=O)Nc1cnn(C[C@@H]2CCOC2)c1-c1cc2c(cn1)CN(c1c(F)c(OC)cc(OC)c1F)C(=O)C21CC1` [Example 28, (S)-N-(5-(2′-(2,6-difluoro-3,5-dimethoxyphenyl)-3′-oxo-2′,3′-dihydro-1′H-spiro[cyclopropane-1,4′-[2,7]naphthyridine]-6′-yl)-1-((tetrahydrofuran-3-yl)methyl)-1H-pyrazol-4-yl)acrylamide], for which the FGFR1/FGFR4 on FGFR1 (pre-incubated for 4 hours) is above 100. The FGFR2/FGFR4 at FGFR2 (pre-incubated for 4 hours) is above 100. On FGFR3 (pre-incubated for 4 hours), the FGFR3/FGFR4 is given as above 100.
With `C=CC(=O)Nc1cnn(Cc2cccnc2)c1-c1cc2c(cn1)CN(c1c(F)c(OC)cc(OC)c1F)C(=O)C21CC1` [Example 22, N-(5-(2′-(2,6-difluoro-3,5-dimethoxyphenyl)-3′-oxo-2′,3′-dihydro-1′H-spiro[cyclopropane-1,4′-[2,7]naphthyridine]-6′-yl)-1-(pyridin-3-ylmethyl)-1H-pyrazol-4-yl)acrylamide], at FGFR1 (pre-incubated for 4 hours), the FGFR1/FGFR4 is on record as above 100. Besides, on FGFR2 (pre-incubated for 4 hours), the FGFR2/FGFR4 is above 100. Also, on FGFR3 (pre-incubated for 4 hours), the FGFR3/FGFR4 is given as above 100.
On to `C=CC(=O)Nc1cnn(C[C@@H]2CCCO2)c1-c1cc2c(cn1)CN(c1c(F)c(OC)cc(OC)c1F)C(=O)C21CC1` [Example 31, (S)-N-(5-(2′-(2,6-difluoro-3,5-dimethoxyphenyl)-3′-oxo-2′,3′-dihydro-1′H-spiro[cyclopropane-1,4′-[2,7]naphthyridine]-6′-yl)-1-((tetrahydrofuran-2-yl)methyl)-1H-pyrazol-4-yl)acrylamide], for which the FGFR1/FGFR4 at FGFR1 (pre-incubated for 4 hours) was above 100. The FGFR2/FGFR4 on FGFR2 (pre-incubated for 4 hours) was above 100. Further, the FGFR3/FGFR4 at FGFR3 (pre-incubated for 4 hours) is on record as above 100.
As to `C=CC(=O)Nc1ccc(C)c(-c2ncc3c(n2)C2(CC2)C(=O)N(c2c(F)c(OC)cc(OC)c2F)C3)c1` [Example 37, N-(3-(6′-(2,6-difluoro-3,5-dimethoxyphenyl)-7′-oxo-6′,7′-dihydro-5′H-spiro[cyclopropane-1,8′-pyrido[4,3-d]pyrimidine]-2′-yl)-4-methylphenyl)acrylamide], at FGFR1 (pre-incubated for 4 hours), the FGFR1/FGFR4 is above 100. Further, the FGFR2/FGFR4 on FGFR2 (pre-incubated for 4 hours) is listed as above 100. Further, the FGFR3/FGFR4 at FGFR3 (pre-incubated for 4 hours) is reported as above 100.
As for `C=CC(=O)Nc1cnn(Cc2ccon2)c1-c1cc2c(cn1)CN(c1c(F)c(OC)cc(OC)c1F)C(=O)C21CC1` [Example 25, N-(5-(2′-(2,6-difluoro-3,5-dimethoxyphenyl)-3′-oxo-2′,3′-dihydro-1′H-spiro[cyclopropane-1,4′-[2,7]naphthyridine]-6′-yl)-1-(isoxazol-3-ylmethyl)-1H-pyrazol-4-yl)acrylamide], the FGFR1/FGFR4 at FGFR1 (pre-incubated for 4 hours) is given as above 100. The FGFR2/FGFR4 on FGFR2 (pre-incubated for 4 hours) was above 100. For the same compound, the FGFR3/FGFR4 on FGFR3 (pre-incubated for 4 hours) is reported as above 100.
`C=CC(=O)Nc1cnn(CCOCC)c1-c1cc2c(cn1)CN(c1c(F)c(OC)cc(OC)c1F)C(=O)C21CC1` [Example 16, N-(5-(2′-(2,6-difluoro-3,5-dimethoxyphenyl)-3′-oxo-2′,3′-dihydro-1′H-spiro[cyclopropane-1,4′-[2,7]naphthyridine]-6′-yl)-1-(2-ethoxyethyl)-1H-pyrazol-4-yl)acrylamide]: at FGFR1 (pre-incubated for 4 hours), the FGFR1/FGFR4 is on record as above 100. Also, the FGFR2/FGFR4 on FGFR2 (pre-incubated for 4 hours) is listed as above 100. Also, the FGFR3/FGFR4 on FGFR3 (pre-incubated for 4 hours) was above 100.
`C=CC(=O)Nc1cnn(CCOC)c1-c1cc2c(cn1)CN(c1c(F)c(OC)cc(OC)c1F)C(=O)C21CC1` [Example 15, N-(5-(2′-(2,6-difluoro-3,5-dimethoxyphenyl)-3′-oxo-2′,3′-dihydro-1′H-spiro[cyclopropane-1,4′-[2,7]naphthyridine]-6′-yl)-1-(2-methoxyethyl)-1H-pyrazol-4-yl)acrylamide]: the FGFR1/FGFR4 at FGFR1 (pre-incubated for 4 hours) is above 100. For the same compound, the FGFR2/FGFR4 at FGFR2 (pre-incubated for 4 hours) was above 100. Moreover, the FGFR3/FGFR4 on FGFR3 (pre-incubated for 4 hours) is on record as above 100.
As for `C=CC(=O)Nc1cnn(Cc2cnn(C)c2)c1-c1cc2c(cn1)CN(c1c(F)c(OC)cc(OC)c1F)C(=O)C21CC1` [Example 27, N-(5-(2′-(2,6-difluoro-3,5-dimethoxyphenyl)-3′-oxo-2′,3′-dihydro-1′H-spiro[cyclopropane-1,4′-[2,7]naphthyridine]-6′-yl)-1-((1-methyl-1H-pyrazol-4-yl)methyl)-1H-pyrazol-4-yl)acrylamide], the FGFR1/FGFR4 on FGFR1 (pre-incubated for 4 hours) was above 100. The FGFR2/FGFR4 at FGFR2 (pre-incubated for 4 hours) is above 100. Also, at FGFR3 (pre-incubated for 4 hours), the FGFR3/FGFR4 is above 100.
Consider `C=CC(=O)Nc1cnn(CCO)c1-c1cc2c(cn1)CN(c1c(F)c(OC)cc(OC)c1F)C(=O)C21CC1` [Example 17, N-(5-(2′-(2,6-difluoro-3,5-dimethoxyphenyl)-3′-oxo-2′,3′-dihydro-1′H-spiro[cyclopropane-1,4′-[2,7]naphthyridine]-6′-yl)-1-(2-hydroxyethyl)-1H-pyrazol-4-yl)acrylamide], for which the FGFR1/FGFR4 on FGFR1 (pre-incubated for 4 hours) was above 100. Also, the FGFR2/FGFR4 at FGFR2 (pre-incubated for 4 hours) is given as above 100. At FGFR3 (pre-incubated for 4 hours), the FGFR3/FGFR4 was above 100.
